# Measurements reported in patent US8816078B2, “Acidic gas removal by aqueous amine solvents” (Board of Regents, The University of Texas System, priority 2010, dated 2014).
# Read-outs that look alike come from different tables or passages of the source.
# Legend:
# [1] = Cyclic CO2 capacity calculated from the regressed VLE model; type: physicochemical
# [2] = 25° C.; cited from earlier work
# [3] = Solubility measurements of CO2 loaded PZ/1-MPZ/1,4-DMPZ blends; type: physicochemical
# Experimental: Solubility measurements for CO2 loaded 3.9 m PZ/3.9 m 1-MPZ/0.2 m 1,4-DMPZ and 3.75 m PZ/3.75 m 1-MPZ/0.5 m 1,4-DMPZ solutions were taken to predict the solubility envelope of these blends. The solubility of the blends at varying loadings and temperatures are shown in FIG. 7 for the 3.9 m PZ/3.9 m 1-MPZ/0.2 m 1,4-DMPZ blend and in FIG. 8 for the 3.75 m PZ/3.75 m 1-MPZ/0.5 m 1,4-DMPZ blend. […] At 0° C., the 8 m blend: 3.75 m PZ/3.75 m 1-MPZ/0.5 m […] was soluble at 2° C. with a lean loading of 0.17 mol CO2/mol alkalinity, in contrast to 8 m PZ, which must be operated at loading above 0.3 to avoid solids precipitation.
# A maximum CO2 loading of 0.41 and 0.39 was obtained for the 3.9 m PZ/3.9 m 1-MPZ/0.2 m 1,4-DMPZ blend and the 3.75 m PZ/3.75 m 1-MPZ/0.5 m 1,4 DMPZ blend respectively at room temperature without any solid precipitation. Intermediary loaded solutions were prepared by appropriately mixing the rich loaded and zero loaded solutions and observed at temperatures between 0° C. and the melting point of the solution.
# [4] = for PCO2* at 40° C.: calculated from CO2 solubility curves
# [5] = Heat of CO2 absorption calculated from the VLE model; type: physicochemical
# Experimental: VLE models of CO2 partial pressure were regressed from experimental data to calculate CO2 capacity and enthalpy of CO2 absorption (ΔHabs).
# Heat of absorption was calculated from the model mentioned above by applying the following thermodynamic equation: […]
# Heat of absorption was calculated from the model mentioned above by applying the Gibbs-Helmholtz equation: […]
# The heat absorption of CO2 at a 1.5 kPa, which is an average CO2 partial pressure for lean and rich solutions, was calculated.
# [6] = Freeman et al., 2009; cited from earlier work
# [7] = Solubility and solids precipitation limits of amines in water; type: physicochemical
# [8] = Conc. (m): MDEA/PZ 7/2, PZ 8, MEA 7, HEP 7.7, AEP 6, 2-PE 8, AMP 4.8, EDA 12, DGA 10, PZ-MPZ 4/4, MPZ 8
# [9] = CO2 Loading 0.035 mol/mole Alkalinity
# [10] = CO2 Loading 0.037 mol/mole Alkalinity
# [11] = CO2 Loading 0.102 mol/mole Alkalinity
# [12] = CO2 Loading 0.104 mol/mole Alkalinity
# [13] = CO2 Loading 0.156 mol/mole Alkalinity
# [14] = CO2 Loading 0.158 mol/mole Alkalinity
# [15] = CO2 Loading 0.209 mol/mole Alkalinity
# [16] = CO2 Loading 0.217 mol/mole Alkalinity
# [17] = CO2 Loading 0.251 mol/mole Alkalinity
# [18] = CO2 Loading 0.266 mol/mole Alkalinity
# [19] = CO2 Loading 0.303 mol/mole Alkalinity
# [20] = CO2 Loading 0.313 mol/mole Alkalinity, listed as 8 m PZ
# [21] = CO2 Loading 0.313 mol/mole Alkalinity, listed as 10 m PZ
# [22] = CO2 Loading 0.330 mol/mole Alkalinity
compound,measurement,setting,value
"C1CNCCN1 [PZ, piperazine]",CO2 Capacity,[1]; [8],0.79 mol/kg (water + amine)
same,cyclic CO2 capacity,"[1]; difference between lean and rich CO2 loading at 500 Pa and 5,000 Pa CO2 partial pressure",0.79 mol CO2/kg (water+amine)
same,solubility in water,[2],less than 2 M
same,CO2 loadings at which solid H+PZCOO−.H2O is formed,[3],≥ 0.43
same,loading above which the solvent must be operated to avoid solids precipitation,[3]; 0° C.,above 0.3
same,CO2 loadings at which solid PZ.6H2O is formed,[3]; 25° C.,≤ 0.22
same,PCO2* at 40° C.,[4]; CO2 Loading 0 mol/mole Alkalinity,0.0014 kPa
same,Transition Temp,"[4]; CO2 Loading 0 mol/mole Alkalinity, listed as 8 m PZ",43.0 °C
same,Transition Temp,"[4]; CO2 Loading 0 mol/mole Alkalinity, listed as 10 m PZ",43 °C
same,Transition Temp,[4]; [9],40.0 °C
same,PCO2* at 40° C.,[4]; [9],0.0023 kPa
same,Transition Temp,[4]; [10],40.5 °C
same,PCO2* at 40° C.,[4]; [10],0.0023 kPa
same,Transition Temp,[4]; [11],38.5 °C
same,PCO2* at 40° C.,[4]; [11],0.0068 kPa
same,Transition Temp,[4]; [12],38.5 °C
same,PCO2* at 40° C.,[4]; [12],0.0070 kPa
same,Transition Temp,[4]; [13],35 °C
same,PCO2* at 40° C.,[4]; [13],0.0179 kPa
same,Transition Temp,[4]; [14],33.0 °C
same,PCO2* at 40° C.,[4]; [14],0.0185 kPa
same,Transition Temp,[4]; [15],26.5 °C
same,PCO2* at 40° C.,[4]; [15],0.0499 kPa
same,Transition Temp,[4]; [16],27 °C
same,PCO2* at 40° C.,[4]; [16],0.0589 kPa
same,Transition Temp,[4]; [17],18.0 °C
same,PCO2* at 40° C.,[4]; [17],0.1216 kPa
same,Transition Temp,[4]; [18],18 °C
same,PCO2* at 40° C.,[4]; [18],0.1679 kPa
same,Transition Temp,[4]; [19],3.0 °C
same,PCO2* at 40° C.,[4]; [19],0.3892 kPa
same,PCO2* at 40° C.,[4]; [20],0.4862 kPa
same,PCO2* at 40° C.,[4]; [21],0.4830 kPa
same,Transition Temp,[4]; [20],0 °C
same,Transition Temp,[4]; [21],5.5 °C
same,Transition Temp,[4]; [22],0 °C
same,PCO2* at 40° C.,[4]; [22],0.7252 kPa
same,CO2 loading needed to maintain an aqueous solution,[4]; room temperature (21° C.),0.23 mole CO2 per mole alkalinity
same,highest CO2 loading usable without risk of solid precipitation,[4]; solvent at 0° C.,≤ 0.4 moles CO2/equiv PZ
same,lowest CO2 loading usable without risk of solid precipitation,[4]; solvent at 0° C.,≥ 0.3 moles CO2/equiv PZ
same,Heat of CO2 absorption (ΔHabs),"[5]; 8 m MPZ, 4 m PZ/4 m MPZ blend, 8 m PZ",16.7 kcal/mol
same,ΔHabs@PCO2 = 1.5 kPa,[5]; [8],16.7 kcal/mol
same,heat absorption of CO2,[5]; at 1.5 kPa CO2 partial pressure,16.7 kcal/mol
same,temperature up to which highly resistant to thermal degradation,[6],up to 150 °C
same,oxidative degradation,[7],resistant to oxidative degradation
same,CO2 loading below which PZ.6 H2O solids precipitate,[7]; 0° C.,less than 0.3
same,CO2 loading above which protonated piperazine carbamate precipitates,[7]; ambient temperature,greater than 0.45 moles/equivalent amine
same,solubility in water,"[7]; zero CO2 loading, ambient temperatures, precipitation of PZ.6H2O",about 2 m
